In data set [1] the test system is cultured chick heart cells. Briefly: Effect of TPB on the Ko-dependence of Tc-MIBI influx rates; plasma membrane potential by Goldman flux equation (FIG. 6). Format: cell-based. As for the experimental part:
FIG. 6. Effect of TPB on the Ko -dependence of Tc-MIBI influx rates. A) Preparations were preincubated in MEBSS containing the indicated Ko (K-MSA substitution for NaCl) for 1 minute in the absence (.quadrature.) and for 5 minutes in the presence ( ) of valinomycin (1 ug/ml) prior to determination of 2-min Tc-MIBI uptakes in buffer of the same composition. B) Same conditions as A with a 5-minute pre-incubation period in buffers that also contained TPB (10^-5 M) in the absence (o) or presence (·) of valinomycin. C) Resting membrane potential (Em) as a function of Ko. Em was calculated from the Tc-MIBI influx data shown in A in the presence of valinomycin using the Goldman flux equation (Restrepo, D., et al., J. Gen. Physiol. 92:489-507 (1988)): J/Jo =-x/(1-e^x) where x=Em F/RT and J/Jo is the ratio of Tc-MIBI influx rates at Em and zero membrane potential (Ko =130 mM), respectively. RT/F equals 26 mV at 37° C. The solid lines in A and B have no theoretical significance. The solid line in C represents a linear regression of the data: -Em =-67 log Ko +147mV (r=-0.99). […] Each point is the mean ±SEM of 3 determinations.
Monolayers of spontaneously contractile chick ventricular myocardial cells were obtained from disaggregated 10-day old chick embryo hearts by a slight modification of previously published methods (Horres, C. R., et al., In Pinson, A. (ed.), The Heart Cell in Culture, Boca Raton, CRC Press, pp. 77-108 (1987)). Hearts were trimmed of connective tissue and atria, finely minced and serially exposed to 0.024% (w/v) trypsin in Ca^2+ - and Mg^2+ - free Earle's salt solution for 7 minutes at 37° C. Gentle trituration and agitation on an orbital shaker bath aided disaggregation. Cells released from the first exposure were discarded and cells aspirated from the next four exposures were then added to an equal volume of trypsin deactivating solution consisting of ice-cold culture medium. Cells were centrifuged at 400 g for 10 minutes, resuspended and combined in culture medium, counted with a hemocytometer and diluted to yield a suspension of 5×10^5 cells/ml. 12 ml of suspension were incubated in 100 mm plastic culture dishes containing 7 coverslips (25 mm diameter) placed on the bottom of each dish to serve as substrate for cell growth. Cells were maintained in a humidified atmosphere of 5% CO2 /95% air for 3-4 days yielding a confluent layer of spontaneously contractile myocytes on each coverslip.
Radioactive uptake methods have been described in detail (Piwnica-Worms, D., et al, Circ. (in press). Briefly, coverslips with confluent cells were removed from culture media and pre-equilibrated for 40-60 seconds in MEBSS buffer. Uptake and retention experiments were initiated by immersion of coverslips in 60 mm glass Pyrex dishes containing loading solution consisting of buffer with 0.1-0.6 nM [^99m Tc-MIBI] (0.01-0.4 Ci/nmole; 25-100 uCi/ml). Preparations were removed at various times and rinsed three times in 25 ml volumes of ice-cold (2° C.) isotope-free buffer for 8 seconds each to clear extracellular spaces. Preparations and aliquots of the loading buffer and stock solutions were counted in a well-type sodium iodide gamma counter after which cell protein on each coverslip was extracted in 1% sodium dodecylsulfate with 10 mM sodium borate and assayed by the method of Lowry (Lowry, O. H., et al., J. Biol. Chem. 193:265-275 (1951)). Tc-MIBI binding to glass coverslips without cells was used as an estimate of non-specific adhesion to the substrate ([…] obtained with cellular preparations); this value was subtracted from total uptake determinations to derive the cell-associated counts. Use of generator equilibrium equations (Lamson, M. L., et al., i J. Nucl. Med. 16:639-641 (1975)) allowed calculation of absolute moles of Tc-MIBI in solutions and preparations. Results were therefore expressed as fmol cellular Tc-MIBI/mg protein per nM extracellular Tc-MIBI concentration. […]

Data set [2] can be described thus: Effect of tetraphenylborate on the biodistribution of Tc-MIBI in rats (Table 2). Format: in vivo. To be noted: for Blood level / Heart uptake / Kidney uptake / Liver uptake / Lung uptake: 15 minutes; for tissue retention of Tc-MIBI, all tissues: 15 min. As for the experimental part: The results are expressed as percent injected dose per gram of tissue. […] For this series of experiments, 50 microliters of dimethylsulfoxide lacking or containing 7.2 mM TPB were injected directly into the jugular vein of anesthetized rats immediately prior to the injection of Tc-MIBI (150 microliters; 100 microCuries per 200 microliters).
After 15 minutes, the animal was sacrificed by thoracotomy, organs extracted and placed in test tubes and counted for radioactivity in a standard well-type gamma counter. Tissue wet weights were obtained by subtracting fare weights from total weight of test tubes plus tissue.
Results are expressed as mean ±SEM of three determinations each.

Consider one molecule from patent US5277897A, “In vivo enhancement of cellular accumulation of lipophilic cationic organometallic compounds by reduction of intramembrane potential” (Brigham and Women's Hospital, priority 1992, dated 1994).

The structures appear in SMILES notation.

As to `[C-]#[N+]CC(C)(C)OC.[C-]#[N+]CC(C)(C)OC.[C-]#[N+]CC(C)(C)OC.[C-]#[N+]CC(C)(C)OC.[C-]#[N+]CC(C)(C)OC.[C-]#[N+]CC(C)(C)OC.[Tc]` [Tc-MIBI, hexakis(methoxyisobutylisonitrile)technetium(I)], in data set [1] (absence of TPB), the “valinomycin sensitivity of Tc-MIBI influx” value was “only modestly valinomycin-sensitive”. Besides, the “valinomycin sensitivity of Tc-MIBI influx” value in data set [1] (presence of TPB 10^-5 M) is reported as “highly valinomycin-sensitive”. Further, the “Nernstian behavior of Tc-MIBI” value in data set [1] (presence of valinomycin) is reported as “close to ideal Nernstian behavior”. For the same molecule, the “correlation coefficient r, Em vs log Ko from Tc-MIBI influx” value in data set [1] (valinomycin 1 ug/ml, no TPB) is -0.99. Besides, the “slope of membrane potential vs log Ko from Tc-MIBI influx” value in data set [1] (valinomycin 1 ug/ml, no TPB, Goldman flux equation) is listed as -67 mV/decade. Also, in data set [1] (valinomycin, FIG. 6C), the “regression -Em = -67 log Ko + 147 mV: intercept” value is 147 mV and the “regression -Em = -67 log Ko + 147 mV: slope” value was -67. In data set [2] (+TPB), this molecule showed a Blood level of 0.06 ± 0.01 % ID/gm, a Heart uptake of 1.45 ± 0.11 % ID/gm, a Kidney uptake of 5.81 ± 0.74 % ID/gm and a Liver uptake of 0.76 ± 0.40 % ID/gm. In data set [2] (+TPB), the Lung uptake came to 1.07 ± 0.15 % ID/gm and the “tissue retention of Tc-MIBI, all tissues” value is 9.15 % ID per gram of total tissue. Also, in data set [2] (-TPB), the Blood level stood at 0.04 ± 0.01 % ID/gm, the Heart uptake amounted to 1.92 ± 0.51 % ID/gm, the Kidney uptake came to 3.38 ± 1.09 % ID/gm and the Liver uptake is 0.25 ± 0.15 % ID/gm. In data set [2] (-TPB), the Lung uptake was 0.45 ± 0.09 % ID/gm and the “tissue retention of Tc-MIBI, all tissues” value is listed as 6.04 % ID per gram of total tissue.
